Test system: MC-38-hPD-L1 tumor cells
Test: Anti-tumor efficacy in MC-38-hPD-L1 models
Type: in vivo
Conditions: MC-38-hPD-L1, C57BL/6-hPD-1 mice; 20 mg/kg, IP, BIW; 19 days
Procedure: Materials required for the experiment: Antibody: PD-L1 antibody Durvalumab, Product specifications: 120 mg/2.4 mL(50 mg/mL), Lot No.: 041E17C, Manufacture: AstraZeneca, purchased from Hongkong Mingchuang Medical Limited, storage at 2-8° C. Experimental animal: 120 C57BL/6-hPD-1 mice, female, 6˜8 weeks old, 18˜21 g, purchased from Jiangsu Gem Pharmatech Co. Ltd. Formulation material: castor oil (Cremophor RH40), CAS No.: 61788-85-0, Lot No.: 29761847G0, purchased from Shanghai Xietai Chemical Co. Ltd.; β-cyclodextrin (SBE-β-CD), CAS No.: 128446-35-5, Lot No.: R1804474, purchased from Shanghai Shaoyuan Chemical Co. Ltd.; DMEM culture medium, CAS No.: 11995-065, Lot No.: 2025378, purchased from Gibco Co. Ltd.; PBS, Art. No.: SH30256.01, Lot No.: AB10141338, purchased from HyClone Co. Ltd.; Fetal bovine serum: CAS No.: 10099-141, Lot No.: 1966174C, purchased from Gibco Co. Ltd.; hygromycinB: CAS No.: 10687010, Lot No.: HY069-L12 purchased from Invitrogen.
Cell culture: The MC-38 tumor cells (NCI) were maintained in vitro as a monolayer culture in DMEM medium supplemented with 10% heat inactivated fetal bovine serum, 100 μg/mL hygromycinB at 37° C. in an atmosphere of 5% CO2 in air. The tumor cells were routinely subcultured three times weekly by trypsin-EDTA treatment. The cells growing to a confluency around 70%-80% were harvested and counted for tumor inoculation.
Tumor cell inoculation and group administration: The 100 uL cell suspension containing 1×10^6 MC-38-hPD-L1 tumor cells (cells suspended in base DMEM medium) was inoculated into right dorsal subcutaneous area in mice. 6 days after inoculation, 60 tumor-bearing mice with transplanted tumors ranging from 31.49 mm^3 to 110.26 mm^3 were selected, stratified randomization was used to group and start the administration on the day of grouping.
Preparation of test substances: Preparation of formulation: 800 mL of sterile water was added into the volumetric flask with magnetic stirring to have a vortex. 100 g of castor oil (Cremophor RH40) was added with a spoon slowly into the vortex and the solution was kept stirring. 200 g of β-cyclodextrin (SBE-β-CD) was added while the solution was kept stirring until the solution was clear, and the total volume was set to 1000 mL, which contained 10% (w/v) Cremophor RH40+20% (w/v) an aqueous solution of SBE-β-CD.
Preparation of Compound Suspension: 150.92 mg compound was weighed and 12.5 mL 10% (w/v) Cremophor RH40+20% (w/v) SBE-β-CD aqueous solution were added. The suspension solution with a concentration of 12.0 mg/mL was obtained by vortex for 2 minutes and ultrasound for 30 minutes. 5.0 mL of the compound suspension solution with concentration of 12.0 mg/mL was pipetted and 5.0 mL aqueous formulation solution was added. The suspension solution with a concentration of 6.0 mg/mL was obtained by vortex for 1 minute and sonicated by ultrasound for 5 minutes. 2.0 mL of the compound suspension solution with concentration of 6.0 mg/mL was pipetted and […] was added. The suspension solution with a concentration of 3.0 mg/mL was obtained by vortex for 1 minute and sonicated by ultrasound for 5 minutes. Compound suspension solution was prepared once a day.
Preparation of hPD-L1 antibody: 0.12 mL PD-L1 antibody Durvalumab (50 mg/mL) original solution was pipetted and divided into […] in 5 mL sterile centrifugal tube, which were packed with each containing 6.0 mg. They were stored in refrigerator at 4° C. Before administration, a raw solution containing 0.12 mL and 50 mg/mL was taken, and 2.88 mL 0.9% sodium chloride solution was added to make the solution thoroughly mixed. 3 mL Duvalumab solution with the concentration 2 mg/mL was obtained.
Procedure: The mice in the vehicle group were weighed and recorded in the electronic balance according to their numbers. […]

Which TGI does the source give for Durvalumab [reference compound] here?
Its TGI is 48.17%.

And the “Tumor Volume” value?
The value was 341.19 ± 56.59 mm^3.

Reference: patent US20220313626A1, “SMALL MOLECULE INHIBITORS FOR TREATING CANCER IN A SUBJECT HAVING TUMORS WITH HIGH INTERSTITIAL PRESSURE” (GUANGZHOU MAXINOVEL PHARMACEUTICALS CO., LTD., priority 2019, published 2022)
